Data from patent US9051310B2, “Nicotinamide derivative or salt thereof” (FUJIFILM Corporation, priority 2011, dated 2015).

What was measured:
[1] = tested on: THP-1 cells (TNFα secretion on human IgG-coated plate); test: TNFα generation assay; type: cell-based; settings: IFN-γ differentiated THP-1 cells, 7 hours, AlphaLISA, read-out: IC50 of TNFα generation inhibitory activity
In short: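 THP-1 cells were differentiated with 10 ng/ml IFN-γ for 2 days, then preincubated with compound for 30 min at room temperature. They were then plated at 5×10^4 cells/well on plates coated with human IgG (10 μg/ml). TNFα secreted over 7 h of culture was quantified by AlphaLISA.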

[2] = target: T1, glutathione S-transferase (GST)-linked full-length human Syk protein (Homo sapiens, UniProt P43405); test: Syk enzyme assay; type: biochemical; settings: 0.83 nM Syk, time-resolved fluorescence; read-out: IC50 of Syk-inhibitory activity
T1 construct: glutathione S-transferase (GST)-linked full-length human Syk protein; purchased Carna Biosciences; host or cells: Baculovirus expression system
In short: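 Phosphotyrosine on a biotin-peptide substrate (0.5 μM) was read by time-resolved fluorescence at 615 and 665 nm with Eu-anti-pTyr antibody and APC-streptavidin after 1 h EDTA stop.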

Structure (SMILES) | IC50 [1] | IC50 [2]
CCC[C@@H](Nc1nc(Nc2cnc3c(c2)c(C)nn3C)c(C(N)=O)cc1F)[C@H](C)N [Example 2-242, 6-(((2S,3R)-2-aminohexan-3-yl)amino)-2-((1,3-dimethyl-1H-pyrazolo[3,4-b]pyridin-5-yl)amino)-5-fluoronicotinamide] | 130 to 200 nM | 10 to 50 nM
Cc1nn(C)c2ncc(Nc3nc(N[C@H](C4CC4)[C@H](C)N)c(F)cc3C(N)=O)cc12 [Example 2-243, 6-(((1R,2S)-2-amino-1-cyclopropylpropyl)amino)-2-((1,3-dimethyl-1H-pyrazolo[3,4-b]pyridin-5-yl)amino)-5-fluoronicotinamide] | 130 to 200 nM | 10 to 50 nM
COc1nn(C)c2ncc(Nc3nc(N[C@@H]4CCCC[C@@H]4N)c(F)cc3C(N)=O)cc12 [Example 2-249, 6-(((1R,2S)-2-aminocyclohexyl)amino)-5-fluoro-2-((3-methoxy-1-methyl-1H-pyrazolo[3,4-b]pyridin-5-yl)amino)nicotinamide] | 65 to 130 nM | < 10 nM
COc1nn(C)c2ncc(Nc3nc(N[C@H](C4CC4)[C@H](C)N)c(F)cc3C(N)=O)cc12 [Example 2-253, 6-(((1R,2S)-2-amino-1-cyclopropylpropyl)amino)-5-fluoro-2-((3-methoxy-1-methyl-1H-pyrazolo[3,4-b]pyridin-5-yl)amino)nicotinamide] | 65 to 130 nM | < 10 nM
CCCC[C@@H](Nc1nc(Nc2cnc3c(c2)c(OC)nn3C)c(C(N)=O)cc1F)[C@H](C)N [Example 2-254, 6-(((2S,3R)-2-aminoheptan-3-yl)amino)-5-fluoro-2-((3-methoxy-1-methyl-1H-pyrazolo[3,4-b]pyridin-5-yl)amino)nicotinamide] | 130 to 200 nM | < 10 nM
COc1nn(C)c2ncc(Nc3nc(N[C@H](CC(C)C)[C@H](C)N)c(F)cc3C(N)=O)cc12 [Example 2-255, 6-(((2S,3R)-2-amino-5-methylhexan-3-yl)amino)-5-fluoro-2-((3-methoxy-1-methyl-1H-pyrazolo[3,4-b]pyridin-5-yl)amino)nicotinamide] | 130 to 200 nM | < 10 nM
CC[C@H](N)[C@@H](CC)Nc1nc(Nc2ccc3c(cnn3CCOC)c2)c(C(N)=O)cc1F [Example 2-266, 6-(((3R,4S)-4-aminohexan-3-yl)amino)-5-fluoro-2-((1-(2-methoxyethyl)-1H-indazol-5-yl)amino)nicotinamide] | 65 to 130 nM | < 10 nM

Next, values leading:

IC50 [1] | IC50 [2] | Structure (SMILES)
130 to 200 nM | 10 to 50 nM | CCOC[C@@H](Nc1nc(Nc2cc(OC)cc(OC)c2)c(C(N)=O)cc1F)[C@H](C)N [Example 2-268, 6-(((2S,3S)-3-amino-1-ethoxybutan-2-yl)amino)-2-((3,5-dimethoxyphenyl)amino)-5-fluoronicotinamide]
65 to 130 nM | < 10 nM | COc1cc(Nc2nc(N[C@H](c3ccc(F)cc3)[C@H](C)N)c(F)cc2C(N)=O)cc(OC)c1 [Example 2-269, 6-(((1R,2S)-2-amino-1-(4-fluorophenyl)propyl)amino)-2-((3,5-dimethoxyphenyl)amino)-5-fluoronicotinamide]
65 to 130 nM | < 10 nM | CNc1ncc(Nc2nc(N[C@@H]3CCCC[C@@H]3N)c(F)cc2C(N)=O)cc1F [Example 2-273, 6-(((1R,2S)-2-aminocyclohexyl)amino)-5-fluoro-2-((5-fluoro-6-(methylamino)pyridin-3-yl)amino)nicotinamide]
130 to 200 nM | 10 to 50 nM | CNc1ncc(Nc2nc(N[C@H](C3CC3)[C@H](C)N)c(F)cc2C(N)=O)cc1F [Example 2-274, 6-(((1R,2S)-2-amino-1-cyclopropylpropyl)amino)-5-fluoro-2-((5-fluoro-6-(methylamino)pyridin-3-yl)amino)nicotinamide]
130 to 200 nM | < 10 nM | CC[C@H](N)[C@@H](C)Nc1nc(Nc2cccc3c2cnn3CCOC)c(C(N)=O)cc1F [Example 2-311, 6-(((2R,3S)-3-aminopentan-2-yl)amino)-5-fluoro-2-((1-(2-methoxyethyl)-1H-indazol-4-yl)amino)nicotinamide]
